Experiments:
[1] = test system: Zucker fa/fa rats; experiment: Severe hypertriglyceridemia induced by Triton WR-1339 (inhibition of LPL) in Zucker fa/fa rats, serum triglycerides; type: in vivo, rat; details: for % Change in AUC-TG vs Vehicle Control: AUC 0-48 hr; for reduction in serum triglycerides (TG): 0-hr time point, after repeat dose treatment
Method: The obese Zucker (fatty) rat is one of the oldest models of NIDDM, resembling human type II diabetes, i.e. diabetes associated with obesity. It is characterized by hyperphagia and associated with mild hyperglycaemia, insulin resistance, mild glucose intolerance, hyperlipidaemia specially hypertriglyceridemia. When the non-ionic detergent Triton WR-1339 is injected into Zucker fa/fa rats, there is a progressive accumulation of triacylglycerols in the plasma/serum (Friedman & Byers, 1953; Otway & Robinson, 1967). […] So the nonionic detergent, Triton WR-1339 (Triton), has commonly been used to inhibit LPL for this purpose to produce the condition of severe hypertriglyceridemia similar to familial chylomicronemia syndrome and Type V hyperlipoproteinemia.
In this study 20 male and 14 female Zucker fa/fa rats of 6-10 weeks of age were selected for the and on day-0, body weight of animals recorded and blood samples (approximately 80 μl to 90 μl) was collected via retro orbital route using isoflurane as inhalation anaesthesia, serum separated and serum triglyceride estimated and 24 animals were selected and grouped on the basis of serum triglyceride level as primary parameter as below
From hyphen or day-1 to Day-14, compounds were formulated in 5% PEG+5% Tween 80+90% (0.5%) Na-CMC in such, a way that the final volume of administration was 2 ml/kg of body wt, and animals were dosed orally once daily as per grouping details.
On day-14 blood samples were collected after 1 hour of dosing, serum separated and serum triglycerides (TG) was estimated. Animals were being kept on 24 hours fasting after completion of day-14 activities. On day-15, after 24 hours of fasting, body wt. of all animals was recorded. Then formulations of treatment items were prepared in vehicle and Triton WR-1339 prepared in 0.9% saline for intraperitoneal injection at dose of 250 mg/kg per 5 ml. Basal blood samples collected and animals were administered orally with respective treatment and immediately injected intraperitoneally with Triton WR-1339. Blood samples (approx, 1 ml per sample) were also collected at 6 hr, 24 hours and 48 hours after triton administration and serum triglycerides levels were estimated using Cobas C 311 clinical chemistry autoanalyser from Roche Diagnostics using commercial diagnostic kits.
% change at 6-hr, 24-hr and 48-hr for TG vs Vehicle Control was calculated using MS using MS Excel. The area under curve for TG, AUC-TG (0-48), was calculated using Graph Pad® software.

[2] = test system: Zucker fa/fa rats; experiment: Fatty tolerance test with 13C-palmitate/corn oil after 14 days repeated dosing: hyper-chylomicronemia and chylomicron dynamics; type: in vivo, rat; details: for 13C Palmitate / Palmitate total: adipose tissue
Method: In this study, the effect of Compound (1) on hyper-chylomicronemia and chylomicron dynamics in Zucker fa/fa rats after 14 days repeated dose administration was evaluated.
Zucker (fa/fa) fatty rat of 7-8 weeks of age were purchased from Charles River Laboratory and single-housed under a pathogen free environment with constant room temperature (20-22° C.) and relative humidity (40-50%) and a 6:00 pm-6:00 am dark-light cycle. Rats were provided with free access to food (Lab Diet 5L0D, an irradiated regular rodent diet containing 23% of protein and 4.5% of fat) and water. Initial body weight and body composition (using a NMR analyzer) were measured 6 days post-arrival. The rats were then randomly divided into four dosing groups based BW and fat mass as below—
Dosing was begun at 9-10 weeks of age, once daily (8-10 am) by oral gavage for 14 days. On the day-14 of dosing, a final body composition (after dosing) was measured. On day-15, all animals were given a fatty tolerance test (FTT) after being fasted overnight (15-16 hours), followed by blood and tissue collection.
Fatty Tolerance Test Procedure (FTT): • 1. Following an overnight fast, rats were orally gavaged with a mixture of ^13C-Palmitic Acid (1 and corn oil (1 g of^13C-P dissolved in 5 ml of corn oil) at 5 ml/kg·bw. • 2. Blood samples were collected via tail vein bleeding using 3×300 ul EDTA tubes at the following time points:
0 hour (initial), 1 hour, 2 hour, 3 hour, 4 hour, 5 hour, 6 hour, 8 hour
After the 8 hour bleeding, rats were knocked down in a drop jar using isoflurane. Once sedated, the rats were hooked up to a Midmark Matrx Anesthesia isoflurane machine that dispensed isoflurane vapor at […] with an oxygen flow rate of 1 L/min. Organs and tissues were dissected and frozen immediately in liquid nitrogen and stored at −80° C. LCMS and GCMS were used to assess the incorporation of ^13C lipids into plasma and tissue lipids (n=5 for tissue metabolomics studies).

SMILES: CCO[C@@H](Cc1ccc(OCCn2c(C)ccc2-c2ccc(SC)cc2)cc1)C(=O)O [Compound (1), Saroglitazar Magnesium]
- reduction in AUC-TG Vs Vehicle control group ([1]; 1 mg/kg): 48%
- AUC-TG (0-48 hr.) ([1]; 1 mg/kg p.o. once daily): 54241.5 ± 11182.3 mg·h/dL
- Serum Triglycerides after Triton WR-1339 administration ([1]; 1 mg/kg p.o. once daily, 0 hr): 188.3 ± 15.6 mg/dL
- Serum Triglycerides after Triton WR-1339 administration ([1]; 1 mg/kg p.o. once daily, 6 hr): 438.5 ± 52.7 mg/dL
- Serum Triglycerides after Triton WR-1339 administration ([1]; 1 mg/kg p.o. once daily, 24 hr): 1797.2 ± 331.3 mg/dL
- Serum Triglycerides after Triton WR-1339 administration ([1]; 1 mg/kg p.o. once daily, 48 hr): 889.5 ± 353.9 mg/dL
- % Change in TG Vs Vehicle Control ([1]; 1 mg/kg p.o., 0 hr after Triton WR-1339): −63.7 ± 3.0%
- % Change in TG Vs Vehicle Control ([1]; 1 mg/kg p.o., 6 hr after Triton WR-1339): −43.6 ± 6.8%
- % Change in TG Vs Vehicle Control ([1]; 1 mg/kg p.o., 24 hr after Triton WR-1339): −44.7 ± 10.2%
- % Change in TG Vs Vehicle Control ([1]; 1 mg/kg p.o., 48 hr after Triton WR-1339): −59.1 ± 16.3%
- % Change in AUC-TG vs Vehicle Control ([1]; 1 mg/kg p.o.): −48.4 ± 10.6%
- reduction in serum triglycerides (TG) ([1]; 1 mg/kg): 64%
- reduction in AUC-TG Vs Vehicle control group ([1]; 10 mg/kg): 63%
- AUC-TG (0-48 hr.) ([1]; 10 mg/kg p.o. once daily): 39050.3 ± 6922.7 mg·h/dL
- Serum Triglycerides after Triton WR-1339 administration ([1]; 10 mg/kg p.o. once daily, 0 hr): 93.2 ± 7.9 mg/dL
- Serum Triglycerides after Triton WR-1339 administration ([1]; 10 mg/kg p.o. once daily, 6 hr): 328.9 ± 111.9 mg/dL
- Serum Triglycerides after Triton WR-1339 administration ([1]; 10 mg/kg p.o. once daily, 24 hr): 1463.8 ± 265.3 mg/dL
- Serum Triglycerides after Triton WR-1339 administration ([1]; 10 mg/kg p.o. once daily, 48 hr): 340.4 ± 151.7 mg/dL
- % Change in TG Vs Vehicle Control ([1]; 10 mg/kg p.o., 0 hr after Triton WR-1339): −82.0 ± 1.5%
- % Change in TG Vs Vehicle Control ([1]; 10 mg/kg p.o., 6 hr after Triton WR-1339): −57.7 ± 14.4%
- % Change in TG Vs Vehicle Control ([1]; 10 mg/kg p.o., 48 hr after Triton WR-1339): −84.3 ± 7.0%
- % Change in AUC-TG vs Vehicle Control ([1]; 10 mg/kg p.o.): −62.9 ± 6.6%
- reduction in serum triglycerides (TG) ([1]; 10 mg/kg): 82%
- lowering of TG levels (in words) ([1]; 1 and 10 mg/kg, all time points after Triton WR-1339): dose dependent lowering of TG levels at all-time points
- blunting an increase in serum triglycerides (in words) ([1]; compared to fenofibrate): significantly effective in blunting an increase in serum triglycerides
- plasma triglyceride (TG) in FTT (in words) ([2]; 0 and 2 hour post corn oil treatment): significantly reduced plasma triglyceride (TG)
- % Change in 13C Palmitate uptake in adipose tissue Vs Vehicle Control ([2]; 0.4 mg/kg p.o.): 86%
- Plasma TG in FTT ([2]; 0.4 mg/kg p.o. 14 days, 0 min): 330.5 ± 39.2 mg/dL
- Plasma TG in FTT ([2]; 0.4 mg/kg p.o. 14 days, 120 min): 389.2 ± 21.8 mg/dL
- 13C Palmitate ([2]; 0.4 mg/kg p.o.): 6.20 ± 0.89 Nanomole/mg protein
- Palmitate total ([2]; 0.4 mg/kg p.o.): 7.14 ± 0.30 micromole/mg protein
- % Change in 13C Palmitate uptake in adipose tissue Vs Vehicle Control ([2]; 4 mg/kg p.o.): 247%
- Plasma TG in FTT ([2]; 4 mg/kg p.o. 14 days, 0 min): 84.7 ± 9.3 mg/dL
- Plasma TG in FTT ([2]; 4 mg/kg p.o. 14 days, 120 min): 171.3 ± 28.2 mg/dL
- 13C Palmitate ([2]; 4 mg/kg p.o.): 11.57 ± 0.73 Nanomole/mg protein
- Palmitate total ([2]; 4 mg/kg p.o.): 6.60 ± 0.29 micromole/mg protein
- fasting and postprandial TG levels (in words) ([2]; conclusion of the study): significantly reduces fasting and postprandial TG levels
- increase in accumulation of M+16 palmitate in adipose tissue ([2]; high dose (4 mg/kg)): 247%
- appearance of M+16 TG species TG (52:3) and TG (52:4) in plasma (in words) ([2]; low (0.4 mg/kg) and high (4 mg/kg) dose): significantly attenuated the appearance of M+16 TG
- gastrocnemius M+16 palmitate labeling (in words) ([2]; low and high dose (0.4 and 4 mg/kg)): decreased gastrocnemius M+16 palmitate labeling
- increase in accumulation of M+16 palmitate in adipose tissue ([2]; low dose (0.4 mg/kg)): 86%

SMILES: CC(C)OC(=O)C(C)(C)Oc1ccc(C(=O)c2ccc(Cl)cc2)cc1 [Fenofibrate, reference compound]
- reduction in AUC-TG Vs Vehicle control group ([1]; 65 mg/kg): 11%
- AUC-TG (0-48 hr.) ([1]; 65 mg/kg p.o. once daily): 93412.8 ± 12023.5 mg·h/dL
- Serum Triglycerides after Triton WR-1339 administration ([1]; 65 mg/kg p.o. once daily, 0 hr): 324.9 ± 45.3 mg/dL
- Serum Triglycerides after Triton WR-1339 administration ([1]; 65 mg/kg p.o. once daily, 6 hr): 1048.1 ± 147.4 mg/dL
- Serum Triglycerides after Triton WR-1339 administration ([1]; 65 mg/kg p.o. once daily, 24 hr): 2871.5 ± 357.4 mg/dL
- Serum Triglycerides after Triton WR-1339 administration ([1]; 65 mg/kg p.o. once daily, 48 hr): 1630.0 ± 329.8 mg/dL
- % Change in TG Vs Vehicle Control ([1]; 65 mg/kg p.o., 0 hr after Triton WR-1339): −37.4 ± 8.7%
- % Change in TG Vs Vehicle Control ([1]; 65 mg/kg p.o., 6 hr after Triton WR-1339): 34.9 ± 19.0%
- % Change in TG Vs Vehicle Control ([1]; 65 mg/kg p.o., 48 hr after Triton WR-1339): −25.0 ± 15.2%
- % Change in 13C Palmitate uptake in adipose tissue Vs Vehicle Control ([2]; 150 mg/kg p.o.): −14%
- Plasma TG in FTT ([2]; 150 mg/kg p.o. 14 days, 120 min): 502.2 ± 8.1 mg/dL
- 13C Palmitate ([2]; 150 mg/kg p.o.): 2.88 ± 0.57 Nanomole/mg protein
- Palmitate total ([2]; 150 mg/kg p.o.): 6.90 ± 0.24 micromole/mg protein

Source: patent US20180125816A1, “SAROGLITAZAR MAGNESIUM FOR THE TREATMENT OF CHYLOMICRONEMIA SYNDROME” (CADILA HEALTHCARE LIMITED, priority 2015, published 2018)
